Patent US11820737B2, “Generation of peroxyhydroxycarboxylic acid and the use thereof” (ECOLAB USA INC., priority 2020, dated 2023)
Values joined by “and” are separate entries in the source; they are usually repeats but may differ in a detail not shown here. Identical values can stand only once.

Columns and labels:
[1] = test system: Campylobacter jejuni ATCC 33291; assay: Food contact suspension test (FCS, AOAC 960.09); format: cell-based; details: for concentration required for efficacy: 75° F., FIG. 6; for Avg. Log10 Growth / Log10 Reduction: 30 second
Protocol: Antimicrobial Efficacy of Peroxylactic Acid. The antimicrobial efficacy of generated peroxylactic acid was evaluated following the US EPA food contact suspension test protocol (AOAC 960.09) against Staphylococcus aureus and Escherichia coli according to the conditions set forth in Table 7.
Additional efficacy testing against Campylobacter jejuni ATCC 33291 as described in Table 10 was completed to compare efficacy at 75° F. of lactic acid, peroxylactic acid (PLA) and peroxyacetic acid (PAA). […] In particular, in comparison to lactic acid substantially lower concentrations are required (25 ppm PLA instead of approximately 5000 ppm lactic acid).
Beneficially, the concentration of peroxylactic acid required for micro efficacy are substantially lower than lactic acid and the lactic acid which is formed upon degradation of the peroxylactic acid is further beneficial for micro efficacy.

[2] = test system: Listeria monocytogenes ATCC 49594; assay: Food contact suspension test (FCS, AOAC 960.09); format: cell-based; details: 30 second
Protocol: (§1) Additional antimicrobial efficacy of generated peroxylactic acid was evaluated following the US EPA food contact suspension test protocol (AOAC 960.09) against Salmonella, E. coli, Campylobacter and Listeria according to the conditions set forth in Table 16.

[3] = test system: Salmonella, E. coli, Campylobacter and Listeria; assay: Food contact suspension test (AOAC 960.09), FIG. 7; format: cell-based; details: 30 seconds
Protocol: as §1
In addition at 100 ppm PLA provides efficacy of greater than 7 log reduction against Listeria, whereas peroxyacetic acid is known to require at least about 180 ppm for greater than 7 log reduction against Listeria.

[4] = Kinetic instability of peroxylactic acid generated through equilibrium reaction of lactic acid and hydrogen peroxide (FIG. 4); format: physicochemical; details: generated through equilibrium between lactic acid and H2O2, FIG. 4
Protocol: Comparison of Lactide Ester to Lactic Acid Precursor to Generate Peroxylactic Acid. The equilibrium reaction using lactic acid reagent for generating perlactic acid was performed to show the distinct advantages of the methods of generation according to the invention. […] It is also known that the reaction results in additional byproducts—which may not be suitable for various applications of use.
This makes it commercially not feasible to deliver the compositions for end application at customer locations.

SMILES | concentration required for efficacy [1] | Avg. Log10 Growth ([2]; 50 ppm PLA) [Log10] | CFU/mL ([2]; 50 ppm PLA) | Log10 Growth ([2]; 50 ppm PLA) | Log10 Reduction ([2]; 50 ppm PLA) [Log10] | Avg. Log10 Growth ([2]; 100 ppm PLA) [Log10] | Log10 Reduction ([2]; 100 ppm PLA) [Log10] | Avg. Log10 Growth ([2]; 150 ppm PLA) [Log10] | Log10 Reduction ([2]; 150 ppm PLA) [Log10] | Avg. Log10 Growth ([1]; 25 ppm PLA) [Log10] | Log10 Reduction ([1]; 25 ppm PLA) [Log10] | Avg. Log10 Growth ([1]; 50 ppm PLA) [Log10] | Log10 Reduction ([1]; 50 ppm PLA) [Log10] | Avg. Log10 Growth ([1]; 75ppm PLA) [Log10] | Log10 Reduction ([1]; 75ppm PLA) [Log10] | low concentration dose providing efficacy against various microbes [3] [ppm] | stability of generated perlactic acid [4]
CC(O)C(=O)O (stereo not drawn) [Lactic Acid, reference compound] | approximately 5000 ppm | – | – | – | – | – | – | – | – | – | – | – | – | – | – | – | –
CC(O)C(=O)OO (stereo not drawn) [PLA, peroxylactic acid] | 25 ppm | 5.84 | 6.90E+05 CFU/mL and 6.80E+05 CFU/mL | 5.84 Log10 and 5.83 Log10 | 2.23 | <1.00 | >7.06 | <1.00 | >7.06 | <1.00 | >7.06 | <1.00 | >7.06 | <1.00 | >7.06 | 25 | very unstable
